Patent publication US5506147A, “Non-invasive evaluation of maldigestion and malaborption” (priority 1994, dated 1996)
Several values for one entry are separate records, joined by “and”; a condition that tells them apart may be missing. Equal entries are not always repeated.

Tests used:
chymotrypsin [1] = assay: Bentiromide test with stable isotope PABA, serum PABA ratio by GC/MS (Pancreatic Ratio); type: in vivo, human
Procedure: The abundance of PABA and PABA isotope of the type administered to the patient in the 0-time sample is determined and compared to the abundance of PABA (from cleavage of bentiromide) and isotope PABA in the second sample. After adjustment for differences in the abundance of the identical quantities of PABA isotope used for standardization placed in the assay, the value of PABA in the 0-time sample is subtracted from the abundance of the PABA in the second sample (a like correction is also applied to the PABA isotope of the type administered) and a ratio of natural PABA to PABA isotope of the type administered is then determined. Individuals with a ratio greater than 0.32 are considered normal, individuals with a ratio of 0.28-0.32 are considered indeterminate, individuals with a ratio of less than 0.28 are considered abnormal.
Pancreatic and small bowel function were simultaneously evaluated using a gas chromatographic mass spectrometric (GC/MS) method on serum samples. In this method, xylose absorption was quantitated using [^13 C]1 -xylose, a stable isotope of xylose. Absorption of p-aminobenzoic acid (PABA), released from bentiromide by the action of endogenous chymotrypsin, was compared to the absorption of stable isotope PABA (^13 C6), administered orally simultaneously with bentiromide. The ratio (Pancreatic Ratio) of bentiromide PABA to stable isotope PABA in 60-minute sera samples was determined and expressed as a fraction and quantitated relative to added 2,6[^2 H]2 -PABA.
A person presented with diarrhea and hyperthyroidism and was also noted to have significant steatorrhea (63 g fat/24 hours). The patient was further evaluated with standard serum D-xylose testing, which was abnormal (13 mg/dl, nl 20-40). […] The patient then was given the above GC/MS test. A 0-time 10 ml blood sample was taken; 6.7 mg of bentiromide was administered along with 2.0 mg of stable isotope PABA and 5 g D-xylose, and 8 fl. oz of Resource. Sixty minutes later, 10 ml of blood was drawn. The sera after clotting was collected and the PABA, [^13 C]6 -PABA and xylose were purified and assayed by GC/MS.
At 0-time, a blood sample was taken from all patients in the amount of 10 ml, yielding 4-6 ml of serum, an aliquot of which was analyzed by GC/MS for PABA content.
Bentiromide in the amount of 6.7 mg and stable isotope PABA ([^13 C]6 -PABA) in the amount of 2 mg was administered to normal patients and patients with various pancreatic injuries after Internal Review Board approval. After an overnight fast (nothing by mouth after midnight except water or coffee with cream), a 0-time blood sample was drawn. The patients then drank 8 oz. of Resource followed immediately (within less than five minutes) by the test solution comprising 6.7 mg bentiromide, 2 mg stable isotope PABA, and 5 grams of D-xylose dissolved in 30 cc (1 oz.) of water. Sixty minutes later, 10 mls of blood were drawn and the subjects dismissed.
Serum collected one hour after the test meal was analyzed by GC/MS for the ratio of natural PABA to stable isotope PABA. The simultaneous administration of stable isotope PABA with bentiromide corrects for variations in gastric emptying, intestinal absorption, renal function and interfering substances in serum.
Bentiromide and stable isotope PABA were administered as set forth in Example 2 to four groups of patients designated A, B, C, and D on the X axis of FIG. 1. The ratio of labelled (i.e. stable isotope PABA) to bentiromide PABA in sera at 60 minutes is shown on the Y axis.
Several types of columns are used in this analysis and these include a strong anion exchange column (SAX), a strong cation exchange column (SCX), and a C18 column. The SAX and SCX columns are prepared in disposable plastic columns containing 50 mg of each resin. Prior to use, the column is prepared by a column volume of methanol followed by four washings with four column volumes of water. […]

chymotrypsin [2] = settings: cited from earlier work
clinical = assay: clinical; parameters: species or system human; settings: in vivo
Text: Xylose is purified for detection by GC/MS by the process shown in Example 7. The purification process involves rapid deproteination and two-hour derivatization. The analysis involves the examination of one specific ion (M/Z 417) of one specific anomeric peak. Because of natural anomers and possibly incomplete derivatization of carbohydrates, xylose may show several peaks on GC/MS. It is necessary to use a peak providing a linear assay. In the present assay, using a ten-meter column, xylose elutes at 6.6 minutes when the temperature is ramped from 80°-300° C. using helium gas at a head pressure of 50 psi. A second smaller peak elutes at 6.7 minutes. […]
The xylose is also measured in the second fluid sample by GC/MS. […] A value less than or equal to about 2.5 mg/dl is read as abnormal.
Pancreatic and small bowel function were simultaneously evaluated using a gas chromatographic mass spectrometric (GC/MS) method on serum samples. In this method, xylose absorption was quantitated using [^13 C]1 -xylose, a stable isotope of xylose. […] The ratio (Pancreatic Ratio) of bentiromide PABA to stable isotope PABA in 60-minute sera samples was determined and expressed as a fraction and quantitated relative to added 2,6[^2 H]2 -PABA. […]
17. Place supernatant fluid into autosampler vial and examine by GC/MS using ^13 C1 -xylose as a standard for quantitation The derivatized xylose has four peaks. […]

[3] = human, in vivo, po
Procedure: The serum xylose test is one of the best non-invasive methods for diagnosing intestinal malabsorption. In this test, D-xylose, a five-carbon sugar not naturally present in the body or in foodstuffs, is given orally and an estimation of the increase in serum xylose content is carried out through colorimetric determination (CD) of non-glucose reducing sugars in serum. However, the test is occasionally misleading by giving both false positive and false negative results. Older xylose tests measured xylose in the urine. Problems with this test include the fact that the Roe and Rice method of D-xylose analysis is non-specific and cross-reacts partially with glucose. […] Furthermore, the test critically depends on complete emptying of the urinary bladder at five hours and on intact renal function.
An isotope dilution assay was developed for serum xylose using GC/MS to compare to the CD of serum xylose from a commercial diagnostic company to see if variations in the analysis itself may be a contributing cause to the misleading clinical results. Since GC/MS analysis relies on both column separation and mass identification, it is more specific for xylose determination than CD.

[4] = Alcoholic Pancreatitis (n = 4), serum one hour
[5] = Cystic Fibrosis (n = 16), serum one hour
[6] = Other Pancreatitis (n = 4), serum one hour

O=C(O)c1ccc(NC(=O)[C@H](Cc2ccc(O)cc2)NC(=O)c2ccccc2)cc1 [Bentiromide, N-benzoyl-L-tyrosyl-p-aminobenzoic acid]
Ratio in % of Natural PABA to Stable Isotope PABA (chymotrypsin [1]; [4]): 5 ± 6%
Ratio in % of Natural PABA to Stable Isotope PABA, range (chymotrypsin [1]; [4]): 0-14%
Ratio in % of Natural PABA to Stable Isotope PABA (chymotrypsin [1]; [5]): 4 ± 3%
Ratio in % of Natural PABA to Stable Isotope PABA, range (chymotrypsin [1]; [5]): 0-11%
PABA ratio in sera at 60 minutes, FIG. 1 (chymotrypsin [1]; Group B, cystic fibrosis): < 0.32
PABA ratio in sera at 60 minutes, FIG. 1 (in words) (chymotrypsin [1]; Group C, failed to improve on pancreatic supplementary enzymes): this entire Group C is normal
Ratio in % of Natural PABA to Stable Isotope PABA, range (chymotrypsin [1]; Normals (n = 38), serum one hour): 34-200%
Ratio in % of Natural PABA to Stable Isotope PABA (chymotrypsin [1]; Normals (n = 38), serum one hour after 6.7 mg bentiromide and 2 mg [^13 C]6 -PABA): 80 ± 20%
Ratio in % of Natural PABA to Stable Isotope PABA (chymotrypsin [1]; [6]): 7 ± 6%
Ratio in % of Natural PABA to Stable Isotope PABA, range (chymotrypsin [1]; [6]): 1-16%
Ratio in % of Natural PABA to Stable Isotope PABA (chymotrypsin [1]; Partial Pancreatectomy (n = 2), individual values, serum one hour): 2% and 37%
ratio of natural PABA to PABA isotope (chymotrypsin [1]; patients with documented pancreatic insufficiency, 60-minute samples): ≤ 0.18
Pancreatic Ratio (chymotrypsin [1]; person with steatorrhea, sixty minutes, 6.7 mg bentiromide, 2.0 mg stable isotope PABA, nl greater than 0.32): 0.06
plasma bentiromide test result in cystic fibrosis patients (chymotrypsin [2]): abnormally low

[2H]c1c([2H])c(C(=O)O)c([2H])c([2H])c1N [Example 12, 4-aminobenzoic-2,3,5,6-[^2 H]4]
back exchange (boiling water): lack of reaction in boiling water
decomposition (hot dilute acid): extensive decomposition in hot dilute acid

O=C[C@H](O)[C@@H](O)[C@H](O)CO [xylose, D-xylose]
concentration at 1 h (clinical; human, po): 150 µg/mL
xylose analysis, FIG. 4 (in words) (clinical): low
standard serum D-xylose testing [3]: 13 mg/dL
xylose content by CD, sera post xylose administration [3]: 3 to 52 mg/dL
